Read-outs that look alike come from different tables or passages of the source.
Assays:
[1] = molecular target: T1, cloned recombinant human HDAC-1 (Homo sapiens, UniProt Q13547); experiment: Human HDAC-1 enzyme inhibition, Assay 1 ([3H]-acetylated histone substrate, scintillation counting); format: biochemical
T1 construct: made in house; host or cells: Baculovirus insect cell expression system
Procedure: Assay 1. HDAC inhibitors were screened against a cloned recombinant human HDAC-1 enzyme expressed and purified from a Baculovirus insect cell expression system. […] The mixture was extracted with ethyl acetate and the released [^3H]-acetic acid was quantified by scintillation counting. For inhibition studies, the enzyme was preincubated with compounds at 4° C. for 30 minutes prior to initiation of the enzymatic assay. IC50 values for HDAC enzyme inhibitors were determined by performing dose response curves with individual compounds and determining the concentration of inhibitor producing fifty percent of the maximal inhibition.

HCT116 cells = experiment: MTT assay; format: cell-based; conditions: Homo sapiens, HCT116 cells, 72 hours
Procedure: HCT116 cells (2000/well) were plated into 96-well tissue culture plates one day before compound treatment. Compounds at various concentrations were added to the cells. The cells were incubated for 72 hours at 37° C. in 5% CO2 incubator. MTT (3-[4,5-dimethylthiazol-2-yl]-2,5 diphenyl tetrazolium bromide, Sigma) was added at a final concentration of 0.5 mg/ml and incubated with the cells for 4 hours before one volume of solubilization buffer (50% N,N-dimethylformamide, 20% SDS, pH 4.7) was added onto the cultured cells. […] OD values were converted to cell numbers according to a standard growth curve of the relevant cell line.

[2] = Table 5d, read-out: HDAC-1 IC50
[3] = Table 5c, read-out: Human HDAC-1 IC50
[4] = Table 5b, read-out: Human HDAC-1 IC50
[5] = Table 5F, read-out: Human HDAC-1 IC50

T1 sequence (Q13547 whole entry): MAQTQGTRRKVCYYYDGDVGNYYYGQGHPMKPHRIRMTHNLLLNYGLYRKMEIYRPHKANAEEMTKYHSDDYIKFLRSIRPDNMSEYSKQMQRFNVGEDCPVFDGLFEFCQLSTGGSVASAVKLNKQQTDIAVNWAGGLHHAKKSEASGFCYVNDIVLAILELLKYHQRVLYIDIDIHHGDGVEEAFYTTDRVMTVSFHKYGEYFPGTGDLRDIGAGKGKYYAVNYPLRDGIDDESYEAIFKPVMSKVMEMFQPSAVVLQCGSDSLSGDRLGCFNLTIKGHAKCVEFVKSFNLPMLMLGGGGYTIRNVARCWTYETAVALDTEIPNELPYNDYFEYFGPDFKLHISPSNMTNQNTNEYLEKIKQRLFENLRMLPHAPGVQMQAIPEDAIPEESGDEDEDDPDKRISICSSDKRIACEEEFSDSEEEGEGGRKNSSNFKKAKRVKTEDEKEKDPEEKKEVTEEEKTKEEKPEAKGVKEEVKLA

## COc1cc(NCc2ccc(/C=C/C(=O)Nc3cccc(O)c3N)cc2)cc(OC)c1OC [Cpd 561]
[1]; [2]
  IC50: > 25 µM
HCT116 cells; HCT-116, Table 5d
  IC50: > 25 µM

## COc1cc(CNCc2ccc(/C=C/C(=O)Nc3ccccc3N)cc2)cc(OC)c1OC [Cpd 59, N-(2-aminophenyl)-3-{4-[(3,4,5-trimethoxy-benzylamino)-methyl]-phenyl}-acrylamide]
[1]; [3]
  IC50: 12 µM
HCT116 cells; HCT-116, 72 h, Table 5c
  IC50: 22 µM

## COc1cc2c(cc1OC)CN(c1ccc(/C=C/C(=O)Nc3ccccc3N)cc1)CC2 [Cpd 498, N-(2-Amino-phenyl)-3-[4-(6,7-dimethoxy-3,4-dihydro-1H-isoquinolin-2-yl)-phenyl]-acrylamide]
[1]; [2]
  IC50: > 25 µM

## N#Cc1cccc(NCc2ccc(C=CC(=O)Nc3ccccc3N)cc2)c1 [Cpd 532]
[1]; [2]
  IC50: 3 µM
HCT116 cells; HCT-116, Table 5d
  IC50: 5 µM

## Nc1ccccc1NC(=O)c1ccc(CNc2nc(NCCc3ccccn3)nc(NC3CC3)n2)cc1 [Cpd 480]
[1]; [4]
  IC50: 0.8 µM
HCT116 cells; HCT-116, 72 h, Table 5b
  IC50: 0.5 µM

## Nc1ccccc1NC(=O)c1ccc(CNc2nc(NCCc3ccc(Cl)cc3)nc(NC3CC3)n2)cc1 [Cpd 475]
[1]; [4]
  IC50: 0.6 µM
HCT116 cells; HCT-116, 72 h, Table 5b
  IC50: 2 µM

## Nc1ccccc1NC(=O)/C=C/c1ccc(CNc2ccc(N3CCOCC3)cc2)cc1 [Cpd 503, N-(2-Amino-phenyl)-3-{4-[(4-morpholin-4-yl-phenylamino)-methyl]-phenyl}-acrylamide]
[1]; [2]
  IC50: 5 µM
HCT116 cells; HCT-116, Table 5d
  IC50: > 25 µM

## C=C(C)C#Cc1ccc(C(=O)Nc2ccccc2N)cc1 [Cpd 193]
[1]; [5]
  IC50: 4 µM
HCT116 cells; HCT-116, 72 h, Table 5F
  IC50: 16 µM

## Cc1ccc(CNc2ccc(/C=C/C(=O)Nc3ccccc3N)cn2)cc1 [Cpd 117, N-(2-Amino-phenyl)-3-[6-(4-methyl-benzylamino)-pyridin-3-yl]-acrylamide]
[1]; [3]
  IC50: 7 µM
HCT116 cells; HCT-116, 72 h, Table 5c
  IC50: 3 µM

## Nc1ccccc1NC(=O)c1ccc(CN2C(=O)COc3cccnc32)cc1 [Cpd 364, N-(2-Amino-phenyl)-4-(3-oxo-2,3-dihydro-pyrido[3,2-b][1,4]oxazin-4-ylmethyl)-benzamide]
[1]; [5]
  IC50: 4 µM
HCT116 cells; HCT-116, 72 h, Table 5F
  IC50: 0.6 µM

## Nc1ccccc1NC(=O)c1ccc(C#Cc2ccccc2)cc1 [Cpd 196]
[1]; [5]
  IC50: 4 µM
HCT116 cells; HCT-116, 72 h, Table 5F
  IC50: 3 µM

## Nc1ccccc1NC(=O)/C=C/c1ccc(CNc2ccc(Cl)cc2)cc1 [Cpd 552, N-(2-Amino-phenyl)-3-{4-[(4-chloro-phenylamino)-methyl]-phenyl}-acrylamide]
[1]; [2]
  IC50: 4 µM
HCT116 cells; HCT-116, Table 5d
  IC50: 22 µM

## COc1ccc(CNc2ccc(/C=C/C(=O)Nc3ccccc3N)cc2)cc1 [Cpd 65, N-(2-aminophenyl)-3-{4-(4-methoxy-benzylamino)-phenyl}-acrylamide]
HCT116 cells; HCT-116, 72 h, Table 5c
  IC50: 37 µM

## Nc1ccccc1NC(=O)/C=C/c1ccc(CNc2ccccc2)cc1 [Cpd 509, N-(2-Amino-phenyl)-3-(4-phenylaminomethyl-phenyl)-acrylamide]
HCT116 cells; HCT-116, Table 5d
  IC50: 11 µM

## COc1ccc(CNc2cccc(/C=C/C(=O)Nc3ccccc3N)n2)cc1 [Cpd 51, N-(2-aminophenyl)-3-[6-(4-methoxy-benzylamino)-pyridin-2-yl]-acrylamide]
[1]; [3]
  IC50: 22 µM
HCT116 cells; HCT-116, 72 h, Table 5c
  IC50: 4 µM

## CCCc1nc(Cc2ccc(C(=O)Nc3ccccc3N)cc2)no1 [Cpd 356]
[1]; [5]
  IC50: 5 µM
HCT116 cells; HCT-116, 72 h, Table 5F
  IC50: 2 µM

## Nc1nc(N)nc(/C=C/c2ccc(C(=O)Nc3ccccc3N)cc2)n1 [Cpd 220]
[1]; [4]
  IC50: 7 µM
HCT116 cells; HCT-116, 72 h, Table 5b
  IC50: 6 µM

## COc1cc(NCc2ccc(/C=C/C(=O)Nc3ccccc3N)cc2N)cc(OC)c1OC [Cpd 568]
[1]; [2]
  IC50: > 25 µM
HCT116 cells; HCT-116, Table 5d
  IC50: 39 µM

## COc1cc(/C=C/C(=O)Nc2ccccc2N)ccc1CNc1cc(OC)c(OC)c(OC)c1 [Cpd 484]
[1]; [2]
  IC50: 20 µM
HCT116 cells; HCT-116, Table 5d
  IC50: 12 µM

## COc1ccc(C(=O)Nc2ccc(/C=C/C(=O)Nc3ccccc3N)cc2)cc1 [Cpd 72, N-(4-[2-(2-Amino-phenylcarbamoyl)-vinyl]-phenyl}-4-methoxy-benzamide]
[1]; [3]
  IC50: 16 µM
HCT116 cells; HCT-116, 72 h, Table 5c
  IC50: 21 µM

## Nc1ccccc1NC(=O)c1ccc(CNc2ccc(OCc3cccnc3)cc2)cc1 [Cpd 408, N-(2-Amino-phenyl)-4-{[4-(pyridin-3-ylmethoxy)-phenylamino]-methyl}-benzamide]
[1]; [5]
  IC50: 4 µM
HCT116 cells; HCT-116, 72 h, Table 5F
  IC50: 2 µM

## Nc1ccccc1NC(=O)/C=C/c1ccc(CNc2ccc([N+](=O)[O-])cc2)cc1 [Cpd 550, N-(2-Amino-phenyl)-3-{4-[(4-nitro-phenylamino)-methyl]-phenyl}-acrylamide]
[1]; [2]
  IC50: 4 µM
HCT116 cells; HCT-116, Table 5d
  IC50: 15 µM

## Nc1ccccc1NC(=O)/C=C/c1ccc(CNc2ccc(Br)cn2)cc1 [Cpd 557, N-(2-Amino-phenyl)-3-{4-[(5-bromo-pyridin-2-ylamino)-methyl]-phenyl}acrylamide]
[1]; [2]
  IC50: 4 µM
HCT116 cells; HCT-116, Table 5d
  IC50: 6 µM

## COc1ccc(NCc2ccc(/C=C/C(=O)Nc3ccccc3N)cc2)cc1CNc1cc(OC)c(OC)c(OC)c1 [Cpd 563, N-(2-Amino-phenyl)-3-[4-([4-methoxy-3-[(3,4,5-trimethoxy-phenylamino)-methyl]-phenylamino}-methyl)-phenyl]-acrylamide]
[1]; [2]
  IC50: 24 µM
HCT116 cells; HCT-116, Table 5d
  IC50: 6 µM

## COc1ccc(C(=O)Nc2ccc(/C=C/C(=O)Nc3ccccc3N)cn2)cc1 [Cpd 114]
[1]; [3]
  IC50: 25 µM
HCT116 cells; HCT-116, 72 h, Table 5c
  IC50: 0.5 µM

## CCN1C(=O)C(Cc2ccc(C(=O)Nc3ccccc3N)cc2)Oc2ccccc21 (stereo not drawn) [compound 269, N-(2-Amino-phenyl)-4-(4-ethyl-3-oxo-3,4-dihydro-2H-benzo[1,4]oxazin-2-ylmethyl)-benzamide]
[1]; [5]
  IC50: 9 µM
HCT116 cells; HCT-116, 72 h, Table 5F
  IC50: 4 µM

## COc1cc(CCc2ccc(/C=C/C(=O)Nc3ccccc3N)cc2)cc(OC)c1OC [Cpd 540, N-(2-Amino-phenyl)-3-{4-[2-(3,4,5-trimethoxy-phenyl)-ethyl]-phenyl}-acrylamide]
[1]; [2]
  IC50: 10 µM
HCT116 cells; HCT-116, Table 5d
  IC50: 10 µM

## Nc1ccccc1NC(=O)c1ccc(CNc2ccc(SC(F)(F)F)cc2)cc1 [Cpd 450, N-(2-Amino-phenyl)-4-[(4-trifluoromethylsulfanyl-phenylamino)-methyl]-benzamide]
[1]; [5]
  IC50: 3 µM
HCT116 cells; HCT-116, 72 h, Table 5F
  IC50: 2 µM

## Nc1ccccc1NC(=O)c1ccc(-c2noc(-c3ccccc3)n2)cc1 [Cpd 352, N-(2-Amino-phenyl)-4-(5-phenyl-[1,2,4]oxadiazol-3-yl)-benzamide]
[1]; [5]
  IC50: 16 µM
HCT116 cells; HCT-116, 72 h, Table 5F
  IC50: 9 µM

## NCc1cccc(CNc2ccc(/C=C/C(=O)Nc3ccccc3N)cn2)c1 [Cpd 102, 3-[6-(3-aminomethyl-benzylamino)-pyridin-3-yl]-N-(2-aminophenyl)-acrylamide]
[1]; [3]
  IC50: 20 µM
HCT116 cells; HCT-116, 72 h, Table 5c
  IC50: 6 µM

## Cc1nc(NCCc2ccccc2)nc(NCc2ccc(C(=O)Nc3ccccc3N)cc2)n1 [Cpd 483, N-(2-amino-phenyl)-4-[(6-methyl-4-phenethylamino-[1,3,5]triazin-2-yl-amino)-methyl]-benzamide]
[1]; [4]
  IC50: 4 µM

## Nc1ccccc1NC(=O)c1ccc(CSc2nc3cc(OCCN4CCOCC4)ccc3[nH]2)cc1 [Cpd 236]
[1]; [5]
  IC50: 5 µM
HCT116 cells; HCT-116, 72 h, Table 5F
  IC50: 6 µM

## Nc1nc(NCc2ccc(C(=O)Nc3ccccc3N)cc2)nc(-c2ccccc2)n1 [Cpd 484]
[1]; [4]
  IC50: 2 µM
HCT116 cells; HCT-116, 72 h, Table 5b
  IC50: 0.3 µM

## Nc1ccccc1NC(=O)/C=C/c1ccc(CNc2ccc(F)cc2)cc1 [Cpd 554, N-(2-Amino-phenyl)-3-{4-[(4-fluoro-phenylamino)-methyl]-phenyl}-acrylamide]
[1]; [2]
  IC50: 15 µM
HCT116 cells; HCT-116, Table 5d
  IC50: 12 µM

## COc1cc(OCc2ccc(/C=C/C(=O)Nc3ccccc3N)cc2)cc(OC)c1OC [Cpd 497, N-(2-Amino-phenyl)-3-[4-(3,4,5-trimethoxy-phenoxymethyl)-phenyl]-acrylamide]
[1]; [2]
  IC50: 15 µM
HCT116 cells; HCT-116, Table 5d
  IC50: 6 µM

## Nc1ccccc1NC(=O)/C=C/c1ccc2c(c1)-c1ccccc1C2 [Cpd 519]
HCT116 cells; HCT-116, Table 5d
  IC50: 6 µM

## Nc1ccccc1NC(=O)c1ccc(-c2ccc(CNC3Cc4ccccc4C3)s2)cc1 [Cpd 465]
[1]; [5]
  IC50: 2 µM

## COc1cc(-c2ccc3sc(NCc4ccc(C(=O)Nc5ccccc5N)cc4)nc3c2)cc(OC)c1OC [Cpd 194]
[1]; [5]
  IC50: 3 µM

## COc1cccc(NCc2ccc(/C=C/C(=O)Nc3ccccc3N)cc2)c1 [Cpd 507, N-(2-Amino-phenyl)-3-{4-[(3-methoxy-phenylamino)-methyl]-phenyl}-acrylamide]
HCT116 cells; HCT-116, Table 5d
  IC50: 10 µM

## COc1ccc(NCc2ccc(/C=C/C(=O)Nc3ccccc3N)cc2)cc1 [Cpd 541, N-(2-Amino-phenyl)-3-{4-[(4-methoxy-phenylamino)-methyl]-phenyl}-acrylamide]
HCT116 cells; HCT-116, Table 5d
  IC50: 12 µM

## COc1ccc(CNc2ccc3cc(/C=C/C(=O)Nc4ccccc4N)ccc3n2)cc1 [Cpd 88, N-(2-aminophenyl)-3-[2-(4-methoxy-benzylamino)-quinolin-6-yl]-acrylamide]
HCT116 cells; HCT-116, 72 h, Table 5c
  IC50: > 39 µM

## COc1ccccc1NCc1ccc(/C=C/C(=O)Nc2ccccc2N)cc1 [Cpd 508, N-(2-Amino-phenyl)-3-{4-[(2-methoxy-phenylamino)-methyl]-phenyl}-acrylamide]
HCT116 cells; HCT-116, Table 5d
  IC50: 11 µM

## Nc1ccccc1NC(=O)/C=C/c1ccc(CSc2ccc3ccccc3n2)cc1 [Cpd 110, N-(2-Amino-phenyl)-3-[4-(quinolin-2-ylsulfanylmethyl)-phenyl]-acrylamide]
[1]; [3]
  IC50: 3 µM

## COc1ccc(NCc2ccc(C(=O)Nc3cc(C(F)(F)F)ccc3N)cc2)cc1OC [Cpd 453, N-(2-Amino-5-trifluoromethyl-phenyl)-4-[(3,4-dimethoxy-phenylamino)-methyl]-benzamide]
HCT116 cells; HCT-116, 72 h, Table 5F
  IC50: 37 µM
